Consider three molecules from US20240269091A1, “IDEBENONE IN THE TREATMENT OF DRUG RESISTANT EPILEPSY” (Katholieke Universiteit Leuven, priority 2021, published 2024).

The test system of data set [1] is Arginase 1 expression (microglia/macrophage M2 marker). Description: Temporal lobe epilepsy model (SSSE), Arginase-1 expression by real-time quantitative PCR of brain tissue. In kind it is in vivo, C57bl/6 mice. To be noted: 100 mg/kg twice daily i.p. for one week, vs vehicle control; p=0.017; two-way ANOVA (FIG. 5). The procedure:
The present example investigates whether Idebenone has the potential to modulate neuroinflammation from an M1 to M2 phenotype. […] (control animals received vehicle injections for one week). Idebenone was suspended in 5% dimethyl sulfoxide and 20% Kolliphor RH40 in 0.01M PBS. Expression of the major marker for M2 polarization, Arginase-1, was assessed via real-time quantitative PCR upon brain tissue processing. Two-way ANOVA analysis was performed to evaluate the effect of two factors including the treatment and the SSSE [self-sustained Electrical Status Epilepticus], and any interaction of the two factors.

In data set [2] the test system is EKP-induced seizures in zebrafish larvae. Description: Zebrafish EKP-induced seizure model, locomotor activity tracking. Format: in vivo. To be noted: 8.5 μM, 2 h pre-incubation, 300 μM EKP, 7 dpf larvae, 30 min recording; ****p<0.0001. The procedure: FIG. 2. Activity profile of 8.5 μM idebenone after 300 μM EKP exposure. Locomotor activity was quantified using ZebraLab™ software (Viewpoint, Lyon, France) and expressed in mean “actinteg” units per 5-min+/−SEM during a 30 min recording interval as indicated above. Statistical analysis: one-way ANOVA with Dunnett's multiple comparison test. A statistical difference is indicated by: ****p<0.0001. For each condition n=10 larvae were used and the experiment was performed three times (n total=30 per condition).
The EKP-induced epilepsy zebrafish model is a suitable model to investigate drug resistant epilepsy. Ethyl ketopentenoate (EKP) is a lipid-permeable GAD-inhibitor that results in […] and drug resistant seizures in zebrafish [Zhang et al. (2017) Sci Rep. 7, 7195]. […]
Larvae (7dpf) in 100 μl VHC were arrayed individually in a 96-well plate (tissue culture plate, at bottom, Falcon, USA) and kept in the light at 28° C. […] The plates were placed in an automated video tracking device (ZebraBox™ apparatus; Viewpoint, Lyon, France) and the locomotor behaviour of the larvae was monitored for […] in the dark at 28° C. Locomotor activity was quantified using ZebraLab™ software (Viewpoint, Lyon, France) and expressed in “actinteg” units per 5-min interval. […] The actinteg value is defined as the sum of all image pixel changes detected during the time window.

Data set [3] deals with pilocarpine-induced seizures. To be noted: rats, preventive treatment 3 days prior to pilocarpine injection; Ahmed (2014); cited from earlier work.
The conditions of data set [4]: mouse, in vivo; cited from earlier work.
Data set [5] deals with EKP-induced epileptiform activity in zebrafish. Description: Zebrafish EKP-induced seizure model, LFP recordings. Format: in vivo. The procedure: FIG. 3. Representative LFP recordings of zebrafish in the absence (VHC) or presence of EKP, treated with 8.5-4.3 μM idebenone or untreated (VHC), in the presence or absence of a specific PHGDH inhibitor CBR-5884 [Mullarky et al. (2016) Proc Natl Acad Sci USA 113, 1778-1783].
FIG. 4: Normalized PSD per larvae for the different conditions. Number of epileptic events within a 10-min recording (mean±SEM.). Number of recordings analysed were: VHC (n=9), EKP (n=15), 8.5 μM idebenone (Ide) (n=10), 4.3 μM idebenone (n=10), 4.3 μM idebenone+inhibitor (n=9). PHGDH-inhibitor CBR-5884 was used. Statistical differences as compared to the EKP-only treated larvae were assessed by the following statistical analysis: one-way ANOVA with Dunnett's multiple comparison test. A statistical difference is indicated by: **p<0.01, ***p<0.001 and ****p<0.0001.ns=not significant.
Common to all epilepsies, seizures occur due to an abnormal, excessive and synchronous activity of large neuronal populations. As such, seizures can be observed on electrophysiological recordings such as invasive or non-invasive local field potential (LFP) measurements, being a counterpart of electroencephalogram (EEG) performed in humans. Indeed, these techniques serve as a gold standard for epilepsy diagnosis. […]

In data set [6] the target is T1, human recombinant PHGDH (Homo sapiens, UniProt O43175).
T1 sequence (O43175 1-533): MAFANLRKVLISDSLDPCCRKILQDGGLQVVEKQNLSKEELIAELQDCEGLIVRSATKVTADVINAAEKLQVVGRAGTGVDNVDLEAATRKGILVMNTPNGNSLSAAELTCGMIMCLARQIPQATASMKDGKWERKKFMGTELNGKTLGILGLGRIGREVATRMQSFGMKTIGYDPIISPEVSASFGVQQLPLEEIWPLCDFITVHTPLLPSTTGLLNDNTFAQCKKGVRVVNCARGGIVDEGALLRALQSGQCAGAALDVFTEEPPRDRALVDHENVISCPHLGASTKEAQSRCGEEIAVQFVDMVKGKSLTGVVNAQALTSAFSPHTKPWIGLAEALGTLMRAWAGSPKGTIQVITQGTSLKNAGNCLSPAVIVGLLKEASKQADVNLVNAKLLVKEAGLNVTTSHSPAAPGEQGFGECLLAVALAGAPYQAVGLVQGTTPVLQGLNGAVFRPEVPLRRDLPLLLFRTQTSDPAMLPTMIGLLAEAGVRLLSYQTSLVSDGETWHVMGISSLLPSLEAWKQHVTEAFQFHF
Description: PHGDH enzyme activity, colorimetric PHGDH activity kit (absorbance at 450 nm, NADH generated).
Description: As a readout, absorbance at 450 nm, indicative for the amount of NADH generated, was measured over time.

Data set [7] relates to EKP-induced epileptiform activity in zebrafish. To be noted: 1 μM; Zhang et al. (2017); cited from earlier work.

Entries after “also recorded” stand apart in the source; their conditions may differ.

`COC1=C(OC)C(=O)C(CCCCCCCCCCO)=C(C)C1=O` [Idebenone, 6-(10-hydroxydecyl)-2,3-dimethoxy-5-methyl-1,4-benzoquinone]: the “expression of M2 marker Arginase 1” value in data set [1] is “increases the expression; also recorded: significant increase”. For the same molecule, in data set [2], the “EKP-induced seizures assessed as locomotor movement (actinteg units per 5-min)” value is “significantly reduced EKP-induced seizures”. The “neuroprotection in pilocarpine-induced seizure model” value in data set [3] is on record as “provides neuroprotection”. Moreover, the LD50 entry in data set [4] is “exceeds 10,000 mg/kg”. The “EKP-induced epileptiform activity, LFP recordings” value in data set [5] (8.5-4.3 μM, 10-min recording) is “significantly reduced EKP-induced epileptiform activity”. Moreover, in data set [6], the “effect on the oxido-reduction reaction toward NADH generation (compound itself)” value is on record as “does not affect the oxido-reduction reaction toward NADH generation”. For the same molecule, the PHGDH enzyme activity entry in data set [6] (25 µM idebenone, over time, DMSO 0.5% (FIG. 1)) is “induces increased enzyme activity of PHGDH”.
On to `N#Cc1ccccc1-c1cc(-c2ccccn2)cn(-c2ccccc2)c1=O` [Perampanel], for which the “anti-seizure activity in the EKP model” value in data set [7] is given as “anti-seizure activity”.
Take CBR-5884: the “blocking of the anti-seizure activity of idebenone” value in data set [5] (co-administration with idebenone (4.3 μM)) is recorded as “could be blocked by co-administration”. The “blocking of idebenone-induced increased PHGDH activity” value in data set [6] (co-administration with idebenone) was “can be blocked by co-administration”.
